Several values for one entry are separate records, joined by “and”; a condition that tells them apart may be missing. Equal values may be shown once.
What was measured:
[1] = test system: CD8+ T cells in PBMC; assay type: cell-based, human
[2] = test system: CD8+ T cells in PBMC; test: Granzyme B and perforin detection by flow cytometry; assay type: cell-based, human

## staphylococcal enterotoxin B [SEB]
[1]
  CD107a mobilization, monofunctional vs polyfunctional cells: increases were observed
  IFN-γ-level change in polyfunctional cells: increases in IFN-γ observed
[2]
  CD8+ T cells lacking granule proteins: 58% and 44.5–70.9%
